Test results reported in US11214803B2, “Modulators of YAP1 expression” (Ionis Pharmaceuticals, Inc., priority 2019, dated 2022).
Strand notation (5' to 3'): a small letter for the sugar, then the base; units joined by * are phosphorothioate-linked, units joined directly phosphodiester-linked; [ ] holds rarer units or linkages, { } end groups; capitals alone tell only the bases. k = constrained ethyl (cEt); [5mC] = 5-methylcytosine; d = 2'-deoxy (DNA)

Test system: Yap1 mRNA
Test: Antisense inhibition of human Yap1 in A-431 cells by cEt gapmers, single dose (Example 3, RTS36584)
Format: cell-based
Description: Modified oligonucleotides were designed to target a Yap1 nucleic acid and were tested for their effect on Yap1 mRNA level in vitro. The modified oligonucleotides were tested in a series of experiments that had similar culture conditions. Cultured A-431 cells at a density of 5,000 cells per well were treated using free uptake with 2,000 nM of modified oligonucleotide. After a treatment period of approximately 48 hours, RNA was isolated from the cells and Yap1 mRNA levels were measured by quantitative real-time RTPCR. Human primer probe set RTS36584 (forward sequence […], designated herein as SEQ ID NO.: 14; reverse sequence […], designated herein as SEQ ID NO.: 15; probe sequence […], designated herein as SEQ ID NO.: 16) was used to measure mRNA levels. Yap1 mRNA levels were normalized to total RNA content, as measured by RIBOGREEN®. Results are presented in the tables below as percent control of the amount of Yap1 mRNA relative to untreated control cells (% UTC). The modified oligonucleotides with percent control values marked with an asterisk (*) target the amplicon region of the primer probe set. Additional assays may be used to measure the potency and efficacy of the modified oligonucleotides targeting the amplicon region.
The newly designed modified oligonucleotides in the Tables below were designed as 3-10-3 cEt gapmers. The gapmers are 16 nucleosides in length, wherein the central gap segment comprises of ten 2′-deoxynucleosides and is flanked by wing segments on the 5′ direction and the 3′ direction comprising three nucleosides each. Each nucleoside in the 5′ wing segment and each nucleoside in the 3′ wing segment has a cEt sugar modification. The internucleoside linkages throughout each gapmer are phosphorothioate (P═S) linkages. All cytosine residues throughout each gapmer are 5-methylcytosines.
“Start site” indicates the 5′-most nucleoside to which the gapmer is targeted in the human gene sequence. “Stop site” indicates the 3′-most nucleoside to which the gapmer is targeted human gene sequence. […] Activity of the modified oligonucleotide may be defined in a different experiment.

[1] = Table 11, A-431 cells, 5,000 cells per well, free uptake, 2,000 nM oligonucleotide, approx. 48 hours, primer probe set RTS36584, Yap1 mRNA normalized to RIBOGREEN, percent of untreated control
[2] = Table 8, A-431 cells, 5,000 cells per well, free uptake, 2,000 nM, approximately 48 hours, RTS36584, normalized to RIBOGREEN, Yap1 mRNA relative to untreated control cells
[3] = Table 9, A-431 cells, 5,000 cells per well, free uptake, 2,000 nM, approximately 48 hours, RTS36584, normalized to RIBOGREEN, Yap1 mRNA relative to untreated control cells

“1075215 (kA*kA*kA*d[5mC]*dA*dA*dT*dA*dA*dA*dG*dG*dG*kT*k[5mC]*k[5mC]; antisense) [compound 1075215]” was tested, and the “YAP1 (% UTC)” value (Table 29, Yap1 mRNA as percent of untreated control, 3-10-3 cEt gapmers targeting SEQ ID NO.: 1, and 2) was 44 % UTC.
“958653 (kT*kT*kA*d[5mC]*dA*d[5mC]*dA*d[5mC]*dA*dG*dG*d[5mC]*dT*kA*kT*kG; antisense) [Compound 958653]” was tested, and the “YAP1 (% UTC)” value [1] was 17 % UTC.
“958363 (antisense kT*kG*kA*dG*d[5mC]*dT*d[5mC]*dG*dA*dA*d[5mC]*dA*dT*kG*k[5mC]*kT) [Compound 958363]” was tested, and the “YAP1 (% UTC)” value [2] was 70 % UTC.
“958696 (antisense kG*k[5mC]*kA*dT*dA*d[5mC]*dT*dA*d[5mC]*dA*d[5mC]*dT*dA*kT*kA*kA) [Compound 958696]” was tested, and the “YAP1 (% UTC)” value [3] was 56 % UTC.
With “958512 (k[5mC]*kA*kT*dT*d[5mC]*d[5mC]*dA*d[5mC]*dT*dA*d[5mC]*d[5mC]*dA*k[5mC]*kA*k[5mC]; antisense) [Compound 958512]” the “YAP1 (% UTC)” value (Table 10, A-431 cells, 5,000 cells per well, free uptake, 2,000 nM oligonucleotide, approx. 48 hours, primer probe set RTS36584, Yap1 mRNA normalized to RIBOGREEN, percent of untreated control) was 14 % UTC.
With “1076436 (k[5mC]*kA*kT*dT*dA*d[5mC]*dT*dA*d[5mC]*dT*d[5mC]*dT*dG*kT*k[5mC]*k[5mC]; antisense) [compound 1076436]” the “YAP1 (% UTC)” value (Table 34, Yap1 mRNA as percent of untreated control, 3-10-3 cEt gapmers targeting SEQ ID NO: 1 and 2, single dose) was 39 % UTC.
With “1076109 (k[5mC]*kT*kT*dA*dA*dA*dT*dG*dA*d[5mC]*d[5mC]*dA*dA*kT*kT*k[5mC]; antisense) [compound 1076109]” the “YAP1 (% UTC)” value (Table 27, Yap1 mRNA by 3-10-3 cEt gapmers targeting SEQ ID NO.: 1, and 2, percent of untreated control) was 23 % UTC.
With “958709 (antisense kT*k[5mC]*kA*dA*dT*d[5mC]*dT*dA*dT*dG*dA*dG*dA*k[5mC]*k[5mC]*k[5mC]) [Compound 958709]” the “YAP1 (% UTC)” value (Table 12, A-431 cells, 5,000 cells per well, free uptake, 2,000 nM modified oligonucleotide, approx. 48 hours, RTS36584, normalized to RIBOGREEN, Yap1 mRNA relative to untreated control cells) was 57 % UTC.
In the case of “958382 (antisense kT*kT*k[5mC]*d[5mC]*dT*d[5mC]*dT*dG*d[5mC]*dG*d[5mC]*dG*d[5mC]*k[5mC]*k[5mC]*kG) [Compound 958382]”, the “YAP1 (% UTC)” value [2] is reported as 111 % UTC.
In the case of “958723 (antisense kA*kA*k[5mC]*d[5mC]*d[5mC]*dA*d[5mC]*dT*dA*dA*dA*dA*d[5mC]*k[5mC]*kG*kG) [Compound 958723]”, the “YAP1 (% UTC)” value [1] is reported as 63 % UTC.
For “1075886 (antisense k[5mC]*kA*kT*dA*dA*d[5mC]*dA*d[5mC]*dT*dG*dA*dA*dG*kG*kT*kG) [compound 1075886]”, the “YAP1 (% UTC)” value (Table 28, Yap1 mRNA as percent of untreated control, 3-10-3 cEt gapmers targeting SEQ ID NO.: 1, and 2) was 60 % UTC.
With “958726 (antisense k[5mC]*kT*kG*dT*d[5mC]*dA*dG*dT*dT*dA*dT*d[5mC]*d[5mC]*kT*kA*kT) [Compound 958726]” the “YAP1 (% UTC)” value [3] was 3 % UTC.
“1075372 (antisense kA*kT*kA*dT*dA*dT*dA*dG*dA*d[5mC]*dT*dT*dG*kA*kG*kA) [compound 1075372]” was tested, and the “YAP1 (% UTC)” value (Table 26, Yap1 mRNA by 3-10-3 cEt gapmers targeting SEQ ID NO.: 1, and 2, percent of untreated control) was 27 % UTC.
In the case of “958403 (antisense k[5mC]*kA*kG*dT*dT*dT*dA*dT*dG*dT*dA*dG*dT*kA*kG*kT) [Compound 958403]”, the “YAP1 (% UTC)” value [2] is reported as 5 % UTC.
With “958550 (k[5mC]*k[5mC]*kT*dG*dT*dA*dG*dA*d[5mC]*dA*d[5mC]*dA*dT*kA*k[5mC]*kT; antisense) [Compound 958550]” the “YAP1 (% UTC)” value (Table 13, A-431 cells, 5,000 cells per well, free uptake, 2,000 nM modified oligonucleotide, approx. 48 hours, RTS36584, normalized to RIBOGREEN, Yap1 mRNA relative to untreated control cells) was 4 % UTC.
